Laboratory results: ChEMBL document CHEMBL3991601, “The target landscape of clinical kinase drugs” (Science, 2017)
Activity calls are given as the source filed them.

What was measured:
[1] = biological target: Epidermal growth factor receptor (Homo sapiens, UniProt P00533)
Focal adhesion kinase 1 = Focal adhesion kinase 1 (Homo sapiens, UniProt Q05397)
[2] = biological target: MAP kinase-activated protein kinase 3 (Homo sapiens, UniProt Q16644)
[3] = biological target: Tyrosine-protein kinase Lck (Homo sapiens, UniProt P06239)
Tyrosine-protein kinase Lck, sequence (P06239 whole entry): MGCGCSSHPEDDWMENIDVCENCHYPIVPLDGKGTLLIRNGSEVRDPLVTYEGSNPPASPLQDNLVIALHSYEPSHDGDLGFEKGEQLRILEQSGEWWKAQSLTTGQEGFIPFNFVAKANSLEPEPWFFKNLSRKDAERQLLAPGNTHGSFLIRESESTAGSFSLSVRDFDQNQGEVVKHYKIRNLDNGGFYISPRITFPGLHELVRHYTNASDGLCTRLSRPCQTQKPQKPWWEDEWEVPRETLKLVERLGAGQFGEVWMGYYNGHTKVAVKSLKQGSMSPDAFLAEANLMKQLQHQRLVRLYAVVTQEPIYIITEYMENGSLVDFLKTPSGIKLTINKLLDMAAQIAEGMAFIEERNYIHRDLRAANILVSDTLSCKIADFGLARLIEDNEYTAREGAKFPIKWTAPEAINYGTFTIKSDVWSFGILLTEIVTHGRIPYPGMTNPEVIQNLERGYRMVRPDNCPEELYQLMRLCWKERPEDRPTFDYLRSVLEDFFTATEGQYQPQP

[4] = biological target: T1, ATP-dependent RNA helicase DHX30 (Homo sapiens, UniProt Q7L2E3)
T1 sequence (Q7L2E3 whole entry): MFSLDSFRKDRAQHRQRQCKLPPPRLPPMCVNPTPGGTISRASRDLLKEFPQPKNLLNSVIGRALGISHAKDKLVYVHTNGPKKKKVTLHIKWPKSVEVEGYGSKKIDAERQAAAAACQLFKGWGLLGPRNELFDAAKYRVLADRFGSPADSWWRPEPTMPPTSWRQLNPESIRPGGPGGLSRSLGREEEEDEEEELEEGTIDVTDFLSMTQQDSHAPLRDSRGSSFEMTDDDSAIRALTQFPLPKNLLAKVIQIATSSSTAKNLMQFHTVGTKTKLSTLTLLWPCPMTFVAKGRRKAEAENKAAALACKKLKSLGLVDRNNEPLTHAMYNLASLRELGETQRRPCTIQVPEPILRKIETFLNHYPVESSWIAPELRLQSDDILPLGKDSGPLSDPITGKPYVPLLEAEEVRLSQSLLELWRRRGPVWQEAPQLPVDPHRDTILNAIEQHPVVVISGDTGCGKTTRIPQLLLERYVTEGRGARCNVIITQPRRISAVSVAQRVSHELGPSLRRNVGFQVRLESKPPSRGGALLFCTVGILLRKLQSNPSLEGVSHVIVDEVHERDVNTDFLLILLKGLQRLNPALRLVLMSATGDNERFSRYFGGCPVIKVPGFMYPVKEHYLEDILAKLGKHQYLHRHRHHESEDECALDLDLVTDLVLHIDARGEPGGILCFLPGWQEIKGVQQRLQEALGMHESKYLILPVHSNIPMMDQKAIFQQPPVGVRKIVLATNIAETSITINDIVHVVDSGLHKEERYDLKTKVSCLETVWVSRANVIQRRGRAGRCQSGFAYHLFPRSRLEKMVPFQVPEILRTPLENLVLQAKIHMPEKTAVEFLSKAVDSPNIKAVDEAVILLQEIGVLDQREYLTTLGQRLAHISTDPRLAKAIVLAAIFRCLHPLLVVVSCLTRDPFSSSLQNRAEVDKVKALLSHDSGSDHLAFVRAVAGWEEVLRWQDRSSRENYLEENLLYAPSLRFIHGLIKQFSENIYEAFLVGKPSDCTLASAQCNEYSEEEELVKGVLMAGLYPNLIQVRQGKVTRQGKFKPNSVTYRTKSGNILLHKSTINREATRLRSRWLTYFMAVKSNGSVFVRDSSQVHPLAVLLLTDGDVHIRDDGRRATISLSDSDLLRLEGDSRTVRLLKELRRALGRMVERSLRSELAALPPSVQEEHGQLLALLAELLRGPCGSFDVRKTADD

[5] = biological target: Serine/threonine-protein kinase N3 (Homo sapiens, UniProt Q6P5Z2)
Serine/threonine-protein kinase N3, sequence (Q6P5Z2 whole entry): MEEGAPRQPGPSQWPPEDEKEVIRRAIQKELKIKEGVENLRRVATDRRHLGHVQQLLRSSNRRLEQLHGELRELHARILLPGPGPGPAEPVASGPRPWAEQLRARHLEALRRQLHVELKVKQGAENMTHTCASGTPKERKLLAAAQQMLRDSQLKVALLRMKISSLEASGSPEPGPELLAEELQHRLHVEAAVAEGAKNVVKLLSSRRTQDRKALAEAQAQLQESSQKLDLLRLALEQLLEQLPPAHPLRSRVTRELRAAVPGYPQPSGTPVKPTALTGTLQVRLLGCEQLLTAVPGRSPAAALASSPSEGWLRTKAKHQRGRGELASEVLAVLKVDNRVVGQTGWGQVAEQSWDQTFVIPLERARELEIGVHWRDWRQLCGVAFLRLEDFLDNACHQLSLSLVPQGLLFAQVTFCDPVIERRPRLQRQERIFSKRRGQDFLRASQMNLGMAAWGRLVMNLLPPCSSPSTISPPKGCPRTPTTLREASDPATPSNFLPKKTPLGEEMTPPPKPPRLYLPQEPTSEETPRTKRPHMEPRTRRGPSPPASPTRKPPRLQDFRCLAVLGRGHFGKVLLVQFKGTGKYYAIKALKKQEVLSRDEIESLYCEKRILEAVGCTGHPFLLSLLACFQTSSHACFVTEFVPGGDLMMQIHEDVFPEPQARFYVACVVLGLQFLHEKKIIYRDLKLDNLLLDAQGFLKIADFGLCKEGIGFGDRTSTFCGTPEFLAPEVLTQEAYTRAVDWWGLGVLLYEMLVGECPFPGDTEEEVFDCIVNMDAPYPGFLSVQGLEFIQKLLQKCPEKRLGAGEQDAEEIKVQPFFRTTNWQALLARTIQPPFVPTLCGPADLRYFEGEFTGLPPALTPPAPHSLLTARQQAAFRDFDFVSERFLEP

[6] = biological target: DNA topoisomerase 2-alpha (Homo sapiens, UniProt P11388)
[7] = biological target: Proto-oncogene tyrosine-protein kinase receptor Ret (Homo sapiens, UniProt P07949)
[8] = biological target: Protein kinase C theta type (Homo sapiens, UniProt Q04759)
Protein kinase C theta type, sequence (Q04759 whole entry): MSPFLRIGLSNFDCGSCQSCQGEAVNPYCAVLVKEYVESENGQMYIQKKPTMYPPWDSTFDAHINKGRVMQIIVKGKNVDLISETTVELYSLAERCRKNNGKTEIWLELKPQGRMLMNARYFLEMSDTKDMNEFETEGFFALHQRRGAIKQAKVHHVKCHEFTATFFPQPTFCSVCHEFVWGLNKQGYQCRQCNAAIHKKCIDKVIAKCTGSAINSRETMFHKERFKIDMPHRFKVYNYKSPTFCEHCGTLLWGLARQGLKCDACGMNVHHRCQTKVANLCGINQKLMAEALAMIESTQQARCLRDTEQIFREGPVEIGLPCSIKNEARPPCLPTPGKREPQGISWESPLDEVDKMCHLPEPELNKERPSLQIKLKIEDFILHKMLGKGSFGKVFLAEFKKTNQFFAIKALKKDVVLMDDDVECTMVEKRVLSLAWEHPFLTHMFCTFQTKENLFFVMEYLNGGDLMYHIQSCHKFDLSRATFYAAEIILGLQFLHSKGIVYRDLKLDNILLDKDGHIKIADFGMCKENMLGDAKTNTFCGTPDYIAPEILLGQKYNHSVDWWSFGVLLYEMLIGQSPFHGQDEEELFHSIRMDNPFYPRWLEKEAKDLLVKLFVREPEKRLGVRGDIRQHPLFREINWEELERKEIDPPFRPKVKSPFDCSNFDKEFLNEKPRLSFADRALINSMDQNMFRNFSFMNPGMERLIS

[9] = biological target: Phosphatidylethanolamine-binding protein 1 (Homo sapiens, UniProt P30086)
Phosphatidylethanolamine-binding protein 1, sequence (P30086 whole entry): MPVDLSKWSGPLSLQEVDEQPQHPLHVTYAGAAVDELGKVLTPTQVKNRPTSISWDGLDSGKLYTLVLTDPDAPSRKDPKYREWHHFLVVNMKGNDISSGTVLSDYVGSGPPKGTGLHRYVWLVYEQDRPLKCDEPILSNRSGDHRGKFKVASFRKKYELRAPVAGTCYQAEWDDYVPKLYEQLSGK

[10] = biological target: Cyclin-dependent kinase 17 (Homo sapiens, UniProt Q00537)
Cyclin-dependent kinase 17, sequence (Q00537 whole entry): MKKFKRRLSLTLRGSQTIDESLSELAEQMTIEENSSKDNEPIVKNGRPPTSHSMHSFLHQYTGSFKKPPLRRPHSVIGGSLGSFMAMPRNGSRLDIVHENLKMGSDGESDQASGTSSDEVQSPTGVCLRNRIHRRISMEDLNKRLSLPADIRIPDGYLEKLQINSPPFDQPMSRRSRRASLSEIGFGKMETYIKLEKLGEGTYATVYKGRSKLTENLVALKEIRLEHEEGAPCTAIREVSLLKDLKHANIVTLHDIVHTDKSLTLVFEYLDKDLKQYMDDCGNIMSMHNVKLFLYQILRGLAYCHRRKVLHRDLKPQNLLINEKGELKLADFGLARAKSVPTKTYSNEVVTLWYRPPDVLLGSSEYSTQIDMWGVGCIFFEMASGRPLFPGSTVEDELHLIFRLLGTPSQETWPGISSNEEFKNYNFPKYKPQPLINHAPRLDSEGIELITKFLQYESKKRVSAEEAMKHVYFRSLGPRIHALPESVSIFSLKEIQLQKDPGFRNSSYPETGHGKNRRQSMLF

[11] = biological target: Mitogen-activated protein kinase 14 (Homo sapiens, UniProt Q16539)
Mitogen-activated protein kinase 14, sequence (Q16539 whole entry): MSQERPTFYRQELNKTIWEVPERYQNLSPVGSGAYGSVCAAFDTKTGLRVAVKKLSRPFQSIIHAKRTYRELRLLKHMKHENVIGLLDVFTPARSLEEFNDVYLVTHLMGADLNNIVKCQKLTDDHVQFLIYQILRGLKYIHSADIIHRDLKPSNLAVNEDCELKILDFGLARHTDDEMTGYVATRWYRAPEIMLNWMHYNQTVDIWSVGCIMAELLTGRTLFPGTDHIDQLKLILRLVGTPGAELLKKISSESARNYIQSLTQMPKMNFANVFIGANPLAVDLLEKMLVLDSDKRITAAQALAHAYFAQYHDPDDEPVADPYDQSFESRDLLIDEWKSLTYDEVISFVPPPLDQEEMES

[12] = biological target: Serine/threonine-protein kinase pim-2 (Homo sapiens, UniProt Q9P1W9)
[13] = biological target: Uncharacterized aarF domain-containing protein kinase 5 (Homo sapiens, UniProt Q3MIX3)
Uncharacterized aarF domain-containing protein kinase 5, sequence (Q3MIX3 whole entry, the tested form may be a part): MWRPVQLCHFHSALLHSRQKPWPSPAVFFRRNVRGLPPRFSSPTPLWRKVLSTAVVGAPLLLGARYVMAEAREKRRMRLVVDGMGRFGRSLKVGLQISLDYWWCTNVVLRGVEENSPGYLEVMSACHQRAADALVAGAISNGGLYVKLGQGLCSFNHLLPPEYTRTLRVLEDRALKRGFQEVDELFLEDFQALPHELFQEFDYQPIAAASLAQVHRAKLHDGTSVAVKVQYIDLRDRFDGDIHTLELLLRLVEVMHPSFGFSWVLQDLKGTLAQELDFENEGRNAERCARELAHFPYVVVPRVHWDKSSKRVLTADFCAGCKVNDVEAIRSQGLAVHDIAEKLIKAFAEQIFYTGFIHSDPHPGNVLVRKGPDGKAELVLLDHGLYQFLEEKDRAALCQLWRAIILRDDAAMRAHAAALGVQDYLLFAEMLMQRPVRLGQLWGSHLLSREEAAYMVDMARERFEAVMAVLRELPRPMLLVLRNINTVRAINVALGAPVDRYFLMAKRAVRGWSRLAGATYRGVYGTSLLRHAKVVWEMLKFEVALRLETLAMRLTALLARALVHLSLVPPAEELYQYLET

[14] = biological target: T2, Isoleucine--tRNA ligase, mitochondrial (Homo sapiens, UniProt Q9NSE4)
T2 sequence (Q9NSE4 whole entry): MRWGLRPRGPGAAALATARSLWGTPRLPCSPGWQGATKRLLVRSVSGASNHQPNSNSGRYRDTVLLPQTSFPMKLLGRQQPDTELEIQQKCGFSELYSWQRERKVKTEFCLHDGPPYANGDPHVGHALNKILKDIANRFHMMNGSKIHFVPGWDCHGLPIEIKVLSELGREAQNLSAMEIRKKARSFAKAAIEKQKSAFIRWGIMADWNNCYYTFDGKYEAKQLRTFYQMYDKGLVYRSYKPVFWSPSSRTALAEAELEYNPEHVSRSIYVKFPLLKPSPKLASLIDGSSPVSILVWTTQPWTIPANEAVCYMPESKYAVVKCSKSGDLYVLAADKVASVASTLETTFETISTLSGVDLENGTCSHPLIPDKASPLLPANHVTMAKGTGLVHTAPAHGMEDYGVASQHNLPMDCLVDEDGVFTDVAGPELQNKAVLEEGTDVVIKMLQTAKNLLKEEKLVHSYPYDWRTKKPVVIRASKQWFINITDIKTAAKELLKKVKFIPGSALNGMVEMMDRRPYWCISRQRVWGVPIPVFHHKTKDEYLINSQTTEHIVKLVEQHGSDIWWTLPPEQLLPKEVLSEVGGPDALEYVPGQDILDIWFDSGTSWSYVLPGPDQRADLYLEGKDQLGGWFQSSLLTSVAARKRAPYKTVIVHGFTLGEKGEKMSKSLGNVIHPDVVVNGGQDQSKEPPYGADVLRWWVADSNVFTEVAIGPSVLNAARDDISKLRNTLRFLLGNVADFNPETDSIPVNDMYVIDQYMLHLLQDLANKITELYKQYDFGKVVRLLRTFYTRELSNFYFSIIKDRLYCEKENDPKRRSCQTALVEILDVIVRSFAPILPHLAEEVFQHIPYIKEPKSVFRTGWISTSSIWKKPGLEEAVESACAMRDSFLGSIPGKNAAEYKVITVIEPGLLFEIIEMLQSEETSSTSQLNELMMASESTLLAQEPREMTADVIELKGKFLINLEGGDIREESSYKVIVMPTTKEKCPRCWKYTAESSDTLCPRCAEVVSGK
Further: in the data inactive means no Kd found up to 30 µM.

Focal adhesion kinase 1, sequence (Q05397 whole entry): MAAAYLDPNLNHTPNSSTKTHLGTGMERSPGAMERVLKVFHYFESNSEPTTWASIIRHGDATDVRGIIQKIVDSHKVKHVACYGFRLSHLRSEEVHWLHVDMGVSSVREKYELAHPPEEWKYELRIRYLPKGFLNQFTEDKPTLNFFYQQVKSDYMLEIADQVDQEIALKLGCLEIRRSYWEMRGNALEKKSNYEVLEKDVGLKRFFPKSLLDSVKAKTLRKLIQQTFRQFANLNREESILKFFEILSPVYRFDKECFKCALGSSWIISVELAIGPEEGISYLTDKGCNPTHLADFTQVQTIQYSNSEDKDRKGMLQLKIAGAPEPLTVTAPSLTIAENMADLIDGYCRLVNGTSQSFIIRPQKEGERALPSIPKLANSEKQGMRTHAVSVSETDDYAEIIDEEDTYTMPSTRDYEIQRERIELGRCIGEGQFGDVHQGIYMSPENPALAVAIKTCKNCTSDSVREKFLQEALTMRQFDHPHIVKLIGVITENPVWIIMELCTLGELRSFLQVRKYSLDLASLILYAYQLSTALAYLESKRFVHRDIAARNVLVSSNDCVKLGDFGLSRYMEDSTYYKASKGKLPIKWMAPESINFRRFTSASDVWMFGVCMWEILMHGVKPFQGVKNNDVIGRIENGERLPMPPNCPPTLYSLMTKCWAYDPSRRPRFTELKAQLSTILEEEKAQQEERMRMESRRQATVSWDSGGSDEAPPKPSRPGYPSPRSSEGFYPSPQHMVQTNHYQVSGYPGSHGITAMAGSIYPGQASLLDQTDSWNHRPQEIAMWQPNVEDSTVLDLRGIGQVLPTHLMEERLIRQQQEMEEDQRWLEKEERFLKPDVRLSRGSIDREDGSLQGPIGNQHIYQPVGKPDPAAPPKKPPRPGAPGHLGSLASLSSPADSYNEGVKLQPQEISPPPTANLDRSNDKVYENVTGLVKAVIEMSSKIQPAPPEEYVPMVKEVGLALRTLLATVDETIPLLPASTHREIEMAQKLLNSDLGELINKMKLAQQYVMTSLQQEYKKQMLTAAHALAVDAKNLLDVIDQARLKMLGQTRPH

| Kd [1] | Kd (Focal adhesion kinase 1) | Kd [2] | Kd [3] | Kd [4] | Kd [5] | Kd [6] | Kd [7] | Kd [8] | Kd [9] | Kd [10] | Kd [11] | Kd [12] | SMILES | Kd [13] | Kd [14] |
| --- | --- | --- | --- | --- | --- | --- | --- | --- | --- | --- | --- | --- | --- | --- | --- |
| > 30 µM (inactive) | > 30 µM (inactive) | > 30 µM (inactive) | > 30 µM (inactive) | > 30 µM (inactive) | > 30 µM (inactive) | > 30 µM (inactive) | > 30 µM (inactive) | > 30 µM (inactive) | > 30 µM (inactive) | > 30 µM (inactive) | – | – | NC(=O)c1ccc(N(C(N)=O)c2c(F)cccc2F)nc1-c1ccc(F)cc1F [VX-702] | – | – |
| > 30 µM (inactive) | > 30 µM (inactive) | – | > 30 µM (inactive) | > 30 µM (inactive) | – | > 30 µM (inactive) | – | > 30 µM (inactive) | – | – | > 30 µM (inactive) | > 30 µM (inactive) | Cc1cc(C(=O)Nc2cc(Oc3ccc4nc(NC(=O)C5CC5)cn4n3)ccc2C)n(C)n1 [TAK-593] | > 30 µM (inactive) | – |
| – | – | > 30 µM (inactive) | – | – | – | > 30 µM (inactive) | – | – | > 30 µM (inactive) | – | – | – | C[C@@]1(C(=O)Nc2ccc(F)nc2)CCCN1c1nc(Nc2cc(C3CC3)n[nH]2)c2cccn2n1 [BMS-754807] | – | > 30 µM (inactive) |

Second part, the compound before the results:

| SMILES | Kd [1] | Kd (Focal adhesion kinase 1) | Kd [2] | Kd [3] | Kd [4] | Kd [5] | Kd [6] | Kd [7] | Kd [8] | Kd [9] | Kd [10] | Kd [11] | Kd [12] | Kd [13] | Kd [14] |
| --- | --- | --- | --- | --- | --- | --- | --- | --- | --- | --- | --- | --- | --- | --- | --- |
| Cc1c(NC(=O)OC[C@@H]2COCCN2)cn2ncnc(Nc3ccc4c(cnn4Cc4cccc(F)c4)c3)c12 [AC-480] | 0.003 µM (active) | > 30 µM (inactive) | – | > 30 µM (inactive) | – | – | – | > 30 µM (inactive) | > 30 µM (inactive) | > 30 µM (inactive) | – | > 30 µM (inactive) | > 30 µM (inactive) | – | – |
| COc1cc2ncnc(Nc3ccc(O)cc3)c2cc1OC [WHI-P131] | 1.16 µM (active) | > 30 µM (inactive) | – | > 30 µM (inactive) | > 30 µM (inactive) | > 30 µM (inactive) | > 30 µM (inactive) | 21.9 µM (active) | > 30 µM (inactive) | > 30 µM (inactive) | > 30 µM (inactive) | > 30 µM (inactive) | > 30 µM (inactive) | – | – |
| CNC(=O)c1cc(COc2nnc(Nc3ccc(Cl)cc3)c3ccoc23)ccn1 [TELATINIB] | > 30 µM (inactive) | > 30 µM (inactive) | – | > 30 µM (inactive) | – | > 30 µM (inactive) | > 30 µM (inactive) | > 30 µM (inactive) | > 30 µM (inactive) | > 30 µM (inactive) | > 30 µM (inactive) | > 30 µM (inactive) | > 30 µM (inactive) | – | – |
| CN1CCN(c2nc(C3=C(c4c[nH]c5ccccc45)C(=O)NC3=O)c3ccccc3n2)CC1 [SOTRASTAURIN] | – | > 30 µM (inactive) | – | > 30 µM (inactive) | – | > 30 µM (inactive) | > 30 µM (inactive) | > 30 µM (inactive) | 0.013 µM (active) | – | > 30 µM (inactive) | > 30 µM (inactive) | > 30 µM (inactive) | > 30 µM (inactive) | > 30 µM (inactive) |
| C=CCn1c(=O)c2cnc(Nc3ccc(N4CCN(C)CC4)cc3)nc2n1-c1cccc(C(C)(C)O)n1 [ADAVOSERTIB] | > 30 µM (inactive) | – | – | – | > 30 µM (inactive) | > 30 µM (inactive) | > 30 µM (inactive) | – | – | > 30 µM (inactive) | > 30 µM (inactive) | – | > 30 µM (inactive) | > 30 µM (inactive) | > 30 µM (inactive) |
| CNC(=O)c1ccc(Nc2ncc(C(F)(F)F)c(NCc3nccnc3N(C)S(C)(=O)=O)n2)cc1 [DEFACTINIB] | > 30 µM (inactive) | – | – | > 30 µM (inactive) | > 30 µM (inactive) | > 30 µM (inactive) | > 30 µM (inactive) | 27.5 µM (active) | > 30 µM (inactive) | – | > 30 µM (inactive) | > 30 µM (inactive) | > 30 µM (inactive) | > 30 µM (inactive) | – |
| O=c1[nH]c([C@@H]2CCCN2)nc2c1oc1ccc(Cl)cc12 | > 30 µM (inactive) | > 30 µM (inactive) | – | > 30 µM (inactive) | > 30 µM (inactive) | – | > 30 µM (inactive) | > 30 µM (inactive) | > 30 µM (inactive) | > 30 µM (inactive) | – | – | > 30 µM (inactive) | – | – |
| N#CCNC(=O)c1ccc(-c2ccnc(Nc3ccc(N4CCOCC4)cc3)n2)cc1 [MOMELOTINIB] | – | – | – | – | – | – | > 30 µM (inactive) | – | – | > 30 µM (inactive) | 1.38 µM | > 30 µM (inactive) | > 30 µM (inactive) | – | > 30 µM (inactive) |
| C=CC(=O)Nc1cccc(Nc2nc(Nc3ccc(N4CCN(C(C)=O)CC4)cc3OC)ncc2C(F)(F)F)c1 [ROCILETINIB] | – | 0.433 µM (active) | – | > 30 µM (inactive) | – | – | > 30 µM (inactive) | > 30 µM (inactive) | – | > 30 µM (inactive) | > 30 µM (inactive) | > 30 µM (inactive) | > 30 µM (inactive) | > 30 µM (inactive) | > 30 µM (inactive) |
| O=S(=O)(c1cccc2c(O)nccc12)N1CCCNCC1 [HYDROXYFASUDIL] | – | – | – | – | – | > 30 µM (inactive) | > 30 µM (inactive) | > 30 µM (inactive) | > 30 µM (inactive) | > 30 µM (inactive) | > 30 µM (inactive) | – | > 30 µM (inactive) | > 30 µM (inactive) | – |
| CCN(CCCOc1ccc2c(Nc3cc(CC(=O)Nc4cccc(F)c4)n[nH]3)ncnc2c1)CCOP(=O)(O)O [BARASERTIB] | – | – | > 30 µM (inactive) | – | – | – | > 30 µM (inactive) | – | – | > 30 µM (inactive) | > 30 µM (inactive) | – | – | – | > 30 µM (inactive) |
| O=C(O)c1ccc2c(c1)nc(Nc1cccc(Cl)c1)c1ccncc12 [SILMITASERTIB] | > 30 µM (inactive) | > 30 µM (inactive) | 0.026 µM (active) | > 30 µM (inactive) | – | > 30 µM (inactive) | – | > 30 µM (inactive) | – | – | > 30 µM (inactive) | > 30 µM (inactive) | – | – | – |
